Assays:
Experiment in all cases: relative viability (nuclei count vs DMSO), 5 days (fraction); higher = more cells survive
AZ23 = compound: CC(C)Oc1cc(Nc2nc(N[C@@H](C)c3ccc(F)cn3)ncc2Cl)n[nH]1 [AZ23]
Outline: (§1)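 Cells of lung cancer lines were placed in 1536-well plates and kept overnight at 37 °C. Pinning then delivered five library-drug doses (not always all listed), spaced by √10, onto plates anchored with vehicle, and the cells were left 5 days without changing medium. One step fixed, permeabilised and stained them with Hoechst, and MetaXpress counted nuclei in 4× images. Viability, as a median over plates, is treated-well nuclei divided by vehicle-well nuclei, with acceptance only at control CV below 25% and at least one doubling.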

HG-5-88-01 = compound: CC(C)S(=O)(=O)C1=CC=CC=C1NC2=NC(=NC(=C2Cl)N)NC3=C(C=C(C=C3)N4CCC(CC4)C(=O)N)OC [HG-5-88-01]
Outline: as §1

Embelin = compound: CCCCCCCCCCCC1=C(O)C(=O)C=C(O)C1=O [Embelin]
Outline: as §1

[1] = compound: C[C@@H]1CN(CC(=O)Nc2ccc3c(c2)Cc2cccc(-c4cc(=O)cc(N5CCOCC5)o4)c2S3)C[C@H](C)O1
Outline: as §1

Vatalanib = compound: Clc1ccc(Nc2nnc(Cc3ccncc3)c3ccccc23)cc1 [Vatalanib]
Outline: as §1

Cell Line | relative viability (AZ23; 0.01 µM) | relative viability (AZ23; 0.03162 µM) | relative viability (AZ23; 0.3162 µM) | relative viability (HG-5-88-01; 0.04 µM) | relative viability (HG-5-88-01; 0.1265 µM) | relative viability (HG-5-88-01; 0.4 µM) | relative viability (HG-5-88-01; 1.265 µM) | relative viability (HG-5-88-01; 4 µM) | relative viability (Embelin; 0.08 µM) | relative viability (Embelin; 0.8 µM) | relative viability (Embelin; 2.53 µM) | relative viability (Embelin; 8 µM) | relative viability ([1]; 0.04 µM) | relative viability ([1]; 0.1265 µM) | relative viability ([1]; 0.4 µM) | relative viability ([1]; 4 µM) | relative viability (Vatalanib; 0.04 µM) | relative viability (Vatalanib; 0.1265 µM) | relative viability (Vatalanib; 0.4 µM) | relative viability (Vatalanib; 1.265 µM) | relative viability (Vatalanib; 4 µM)
NCI-H358 | 1.03 | 1.03 | 1.04 | 0.88 | 0.879 | 0.794 | 0.34 | 0.311 | 1.02 | 0.982 | 1.09 | 1.15 | 0.989 | 0.905 | 0.958 | 0.673 | 1.02 | 0.911 | 0.986 | 0.962 | 0.955
NCI-H441 | 1.43 | 1.01 | 1.06 | 1.09 | 1.33 | 1.24 | 0.925 | 0.819 | 1.05 | 1.19 | 1.45 | 1.02 | 1.2 | 0.787 | 1.04 | 0.948 | 1.16 | 0.922 | 1.08 | 1.08 | 0.933
NCI-H460 | 1.03 | 1.08 | 1.07 | 1 | 0.953 | 0.954 | 0.99 | 1.03 | 1.01 | 1.03 | 1.04 | 0.997 | 0.934 | 0.963 | 1.06 | 0.938 | 1.03 | 0.924 | 1.01 | 0.947 | 0.984
NCI-H520 | 0.915 | 1.11 | 0.92 | 0.994 | 1.05 | 0.959 | 1 | 1.02 | 1.07 | 1.1 | 1.11 | 0.931 | 0.797 | 1.05 | 0.901 | 0.94 | 1.07 | 0.92 | 1.08 | 0.881 | 0.841
NCI-H522 | 1.04 | 1.12 | 1.09 | 1.04 | 0.903 | 0.849 | 0.804 | 0.706 | 1.01 | 1.13 | 1.15 | 0.821 | 0.77 | 1 | 1.11 | 0.864 | 1.1 | 0.767 | 0.966 | 0.917 | 0.876
NCI-H596 | 1.07 | 0.915 | 0.962 | 1.01 | 0.933 | 1.04 | 0.994 | 0.576 | 0.981 | 0.986 | 1.16 | 0.732 | 0.947 | 0.982 | 0.783 | 0.885 | 0.97 | 1.15 | 1.06 | 0.954 | 0.912
NCI-H647 | 0.949 | 1.04 | 1.22 | 1 | 0.97 | 0.832 | 0.971 | 1.1 | 0.985 | 1.25 | 1.08 | 0.914 | 0.882 | 0.976 | 1 | 0.734 | 1 | 0.943 | 0.933 | 0.916 | 0.85
NCI-H650 | 0.867 | 1.09 | 0.921 | 1.04 | 0.993 | 0.829 | 0.902 | 0.576 | 0.821 | 1.09 | 0.909 | 0.739 | 0.944 | 0.95 | 1.07 | 0.722 | 1.01 | 0.885 |  | 0.779 | 0.847
NCI-H661 | 1.05 | 1.04 | 0.967 | 0.992 | 1.01 | 1.1 | 1.01 | 1.01 | 1.01 | 1.06 | 1.02 | 1.04 | 0.864 | 0.97 | 0.951 | 0.916 | 0.975 | 0.971 | 0.983 | 0.906 | 0.988
NCI-H727 | 0.832 | 0.94 | 0.973 | 1.08 | 0.883 | 0.958 | 0.606 | 0.63 | 1.03 | 0.935 | 0.958 | 0.976 | 0.93 | 0.885 | 0.991 | 0.882 | 0.943 | 0.858 | 0.899 | 0.832 | 0.887
NCI-H838 | 0.987 | 0.993 | 1 | 0.978 | 1.03 | 0.79 | 0.676 | 0.655 | 0.982 | 1.05 | 1.06 | 0.896 | 0.887 | 0.93 | 0.883 | 0.813 | 1.02 | 0.928 | 1.09 | 0.945 | 0.942
NCI-H1299 | 1.06 | 1.01 | 1.1 | 0.987 | 1.02 | 0.992 | 0.99 | 1.02 | 1.04 | 1.05 | 0.994 | 1.02 | 1.05 | 0.989 | 1 | 0.898 | 1.05 | 1.01 | 1.02 | 1 | 1.01
NCI-H1355 | 1.14 | 1.03 | 1.03 | 1.01 | 1.06 | 0.932 | 0.943 | 0.698 | 0.996 | 1.16 | 1.03 | 0.775 | 0.984 | 0.964 | 0.959 | 0.852 | 1.03 | 0.99 | 1.07 | 0.938 | 0.969
NCI-H1395 |  | 1.01 | 0.849 | 0.9 | 0.97 | 0.921 | 0.953 | 0.876 | 0.941 | 1.15 | 0.857 | 0.617 | 0.854 | 0.816 | 0.761 | 0.999 | 0.939 | 0.871 | 0.863 | 0.813 | 0.885
NCI-H1437 | 1.02 | 1.09 | 1 | 1.04 | 1.04 | 0.995 | 0.917 | 1.01 | 0.961 | 1.11 | 1.04 | 0.709 | 0.977 | 0.995 | 1.06 | 0.885 | 0.984 | 0.987 | 1.01 | 0.938 | 0.969
NCI-H1563 | 1.06 | 1.02 | 0.967 | 1.02 | 0.932 | 0.974 | 0.811 | 1.19 | 0.946 | 1.17 | 0.978 | 0.978 | 0.947 | 0.901 | 0.941 | 0.935 | 1.04 | 0.889 | 1.03 | 0.918 | 0.937
